Source: US20130053357A1, “SKIN IRRITATION SUPPRESSANT AND TRANSDERMAL PREPARATION” (HISAMITSU PHARMACEUTICAL CO., INC., priority 2010, published 2013)
Counter-ions that a name gives are not always drawn. Like-named read-outs stand apart in the source and are kept apart here.

Key:
[1] = test system: human three-dimensional culture epidermal model (LabCyte EPI-MODEL); assay: Production of skin irritation mediators induced by PMA in human three-dimensional epidermal culture model (Experiment 1); type: cell-based; conditions: for activity at 1 %: Homo sapiens, 48 h
Text: Changes in production amounts of skin irritation mediators by test substances were examined when cutaneous irritants were caused to act on a human three-dimensional culture epidermal model.
(§1) A human three-dimensional epidermal culture model obtained by multilayer-culturing a human normal epidermal cell (LabCyte EPI-MODEL, manufactured by Japan Tissue Engineering Co., Ltd.) was used. LabCyte is a cultured skin cultured in a transwell. For the experiment, LabCyte was used with the transwell.
As test substances, there were used cholesterol (manufactured by Wako Pure Chemical Industries, Ltd.), β-sitosterol (manufactured by TAMA BIOCHEMICAL CO., LTD.), α-spinasterol (manufactured by ChromaDex, Inc.), ergosterol (manufactured by Wako Pure Chemical Industries, Ltd.), campesterol (manufactured by TAMA BIOCHEMICAL CO., LTD.), glycyrrhizin (manufactured by Wako Pure Chemical Industries, Ltd.), glycyrrhetinic acid (manufactured by Wako Pure Chemical Industries, Ltd.), ginsenoside (manufactured by Wako Pure Chemical Industries, Ltd.), squalene (manufactured by Wako Pure Chemical Industries, Ltd.), squalane (manufactured by Tokyo Chemical Industry Co., Ltd.) and lanosterol (manufactured by ChromaDex, Inc.), which are candidates of a skin irritation suppressant.
As skin irritants, Phorbol 12-Myristate 13-Acetate (PMA, manufactured by Wako Pure Chemical Industries, Ltd.) was used. In addition, as vehicle, olive oil (manufactured by Wako Pure Chemical Industries, Ltd.) was used.
Experiments were conducted by the following group composition. • PMA Only Group: A group with addition of only 0.00001 mol of PMA dispersed in a vehicle, as a test solution. • Test Substance Group: A group with addition of 0.00001 mol of PMA and the test substance which were dispersed in a vehicle, as a test solution.
(§2) The experiment was conducted as below. First, LabCyte was put into a 24-well assay plate. Then, 1 ml of assay medium (Japan Tissue Engineering Co., Ltd.) was added so that it was brought into contact with a bottom surface of the cultured skin in each well of the 24-well assay plate, and was pre-cultured in an incubator with 5% of carbon dioxide concentration at 37° C. for 1 hour.
Next, a cell survival rate was measured by the MTT method after causing the test solutions of each group to act. Specifically, 50 μL of the test solution of each group was added to the surface of the LabCyte after preculture, was cultured in the incubator with 5% of carbon dioxide concentration at 37° C. for 48 hours, then was transferred to the assay medium comprising 0.5 mg/ml of MTT reagent, and was cultured in the incubator with 5% of carbon oxide level at 37° C. for 3 hours. Then, LabCyte was immersed in 0.3 ml of an isopropanol solution, and the produced blue-purple formazan was extracted for 2 hours. After extraction, an absorbance at 570 nm was measured by a 96 microplate reader. The cell survival rate was calculated as below.
Cell survival rate (%)=(absorbance of Test Substance Group)/(absorbance of PMA Only Group)×100
Subsequently, a production amount of the skin irritation mediator at a test substance concentration with 80% or more of cell survival rate was measured. As skin irritation mediators, PGE2, IL-1α, IL-6, IL-8 were measured.
(§3) The test solutions of each group were added to the cells, the culture solutions incubated for 48 hours were collected, and a production amount of each skin irritation mediator was measured. The skin irritation mediator was measured by using a commercially available ELISA kit (manufactured by R&D Systems, Inc.). A relative production amount of the skin irritation mediator in each test substance was calculated as below, when the production amount of the skin irritation mediator in the PMA Only Group was set to 100.
Relative production amount=(production amount of the mediator in Test Substance Group)/(production amount of the mediator in PMA Only Group)×100

[2] = test system: human three-dimensional culture epidermal model (LabCyte EPI-MODEL); assay: Suppression by cholesterol of skin irritation mediator production induced by drugs in a human epidermal cell (Experiment 2); type: cell-based
Experimental: as §1, §2, §3
Cholesterol was used as a test substance. The drugs shown in Table 2 were used as the cutaneous irritants.
Tests were conducted by the following group composition. • Drug Only Group: A group with addition of only the drug dispersed in a vehicle, as a test solution. Concentrations of the drugs are shown in Table 2. • Drug Plus Cholesterol Group: A group with addition of the drug and 1% by mass of cholesterol which were dispersed in a vehicle, as a test solution.
The experiment was conducted while other conditions were set in the same manner as in Experiment 1.

[3] = Drug Plus Cholesterol Group: drug 2 × 10^−3 M plus 1% by mass of cholesterol
[4] = Drug Plus Cholesterol Group: drug 8 × 10^−5 M plus 1% by mass of cholesterol
[5] = Drug Plus Cholesterol Group: drug 1 × 10^−3 M plus 1% by mass of cholesterol

## CC(C)[C@H](C)CC[C@@H](C)[C@H]1CC[C@H]2[C@@H]3CC=C4C[C@@H](O)CC[C@]4(C)[C@H]3CC[C@]12C [Campesterol, campesterol]
[1]
  Effect on skin irritation mediator production by PMA (in words): exhibited effects of suppressing the skin irritation mediator production by PMA
[1]; read-out: Relative Production Amount of Skin Irritation Mediator when Production Amount in PMA Only Group is Set to 100: IL-1α
  activity at 1 %: 53%
[1]; read-out: Relative Production Amount of Skin Irritation Mediator when Production Amount in PMA Only Group is Set to 100: IL-6
  activity at 1 %: 100%
[1]; read-out: Relative Production Amount of Skin Irritation Mediator when Production Amount in PMA Only Group is Set to 100: IL-8
  activity at 1 %: 106%
[1]; read-out: Relative Production Amount of Skin Irritation Mediator when Production Amount in PMA Only Group is Set to 100: PGE2
  activity at 1 %: 38%

## CN1CCCC1c1cccnc1 (stereo not drawn) [Nicotine]
[2]; [3]
  Relative Production Amount of Skin Irritation Mediator when Production Amount in Drug Only Group is Set to 100: IL-1α: 29
  Relative Production Amount of Skin Irritation Mediator when Production Amount in Drug Only Group is Set to 100: IL-6: 93
  Relative Production Amount of Skin Irritation Mediator when Production Amount in Drug Only Group is Set to 100: IL-8: 67
  Relative Production Amount of Skin Irritation Mediator when Production Amount in Drug Only Group is Set to 100: PGE2: 58

## Cc1ccc(O)c([C@H](CCN(C(C)C)C(C)C)c2ccccc2)c1 [Tolterodine Tartrate]
[2]; [4]
  Relative Production Amount of Skin Irritation Mediator when Production Amount in Drug Only Group is Set to 100: IL-1α: 48
  Relative Production Amount of Skin Irritation Mediator when Production Amount in Drug Only Group is Set to 100: IL-6: 92
  Relative Production Amount of Skin Irritation Mediator when Production Amount in Drug Only Group is Set to 100: IL-8: 66
  Relative Production Amount of Skin Irritation Mediator when Production Amount in Drug Only Group is Set to 100: PGE2: 58

## CN(C)CCC[C@@]1(c2ccc(F)cc2)OCc2cc(C#N)ccc21.O=C(O)C(=O)O [(S)-citalopram Oxalate]
[2]; [5]
  Relative Production Amount of Skin Irritation Mediator when Production Amount in Drug Only Group is Set to 100: IL-1α: 61
  Relative Production Amount of Skin Irritation Mediator when Production Amount in Drug Only Group is Set to 100: IL-6: 85
  Relative Production Amount of Skin Irritation Mediator when Production Amount in Drug Only Group is Set to 100: IL-8: 64
  Relative Production Amount of Skin Irritation Mediator when Production Amount in Drug Only Group is Set to 100: PGE2: 46

## CC(C)NCC(O)COc1ccc(COCCOC(C)C)cc1 (stereo not drawn) [Bisoprolol Fumarate]
[2]; [5]
  Relative Production Amount of Skin Irritation Mediator when Production Amount in Drug Only Group is Set to 100: IL-1α: 26
  Relative Production Amount of Skin Irritation Mediator when Production Amount in Drug Only Group is Set to 100: IL-6: 72
  Relative Production Amount of Skin Irritation Mediator when Production Amount in Drug Only Group is Set to 100: IL-8: 73
  Relative Production Amount of Skin Irritation Mediator when Production Amount in Drug Only Group is Set to 100: PGE2: 87
